Assay results reported in US20140296146A1, “Thermostable Inhibitors of Activation of the Blood Clotting System Through Contact with Foreign Surfaces” (Synapse B.V., priority 2011, published 2014).

Key:
contact activation = assay: CAT assay at 0 pM TF on PPP from blood collection tubes with TICA added to tube or to assay; assay type: biochemical, human
Method: In 12 donors blood was drawn with 7 different drawing tubes with and without addition of TICA1 in the drawing tubes (total 14 tubes; 78 ml). After preparing PPP from these tubes, CAT measurements with MP reagent and pplow reagent was performed. One donor is measured in one plate. (pplow duplicate; MP duplicate; calibrator in 4 fold. Total volume is 320 μl sample/measurement in total 88 wells/donor.
In 12 donors blood is taken with the following commercial available drawing tubes: (From all blooddrawing tubes one tube with and one tube without TICA will be used to draw blood)
Final TICA concentration after blood drawing in every tube with added TICA is 30 μg/ml whole blood.
Final TICA concentration in plasma after preparing PPP is 60 μg/ml (assuming an hematocit of 50%)
CAT measurements with MP reagent and pplow reagent will be performed. One donor is measured in one plate. PPLow duplicate; MP duplicate; calibrator in 4 fold.
Total volume is 320 μl sample/measurement in total 88 wells/donor. NP2012 is also included in the measurement in 4 fold.
Lag times, Endogenous thrombin potentials, and peak height were recorded, For the current conditions of thrombin generation, peak height is the preferred parameter for interpretation of the results.
Plasma with TICA added: concentration in plasma: 60 μg/ml
Stock TICA: 1.5 mg/ml=>1500 μg/ml
20 μl TICA (stock: 1500 μg/ml) is added to 480 μl plasma.

h-FXIIa [1] = target: T1, h-FXIIa (human, UniProt P00748 20-615); assay: S2302 hydrolysis by h-FXIIa (5.01 nM); inhibitor at RT during 72 hrs, against -80° C.
T1 construct: also called factor XIIa
T1 sequence (looked up): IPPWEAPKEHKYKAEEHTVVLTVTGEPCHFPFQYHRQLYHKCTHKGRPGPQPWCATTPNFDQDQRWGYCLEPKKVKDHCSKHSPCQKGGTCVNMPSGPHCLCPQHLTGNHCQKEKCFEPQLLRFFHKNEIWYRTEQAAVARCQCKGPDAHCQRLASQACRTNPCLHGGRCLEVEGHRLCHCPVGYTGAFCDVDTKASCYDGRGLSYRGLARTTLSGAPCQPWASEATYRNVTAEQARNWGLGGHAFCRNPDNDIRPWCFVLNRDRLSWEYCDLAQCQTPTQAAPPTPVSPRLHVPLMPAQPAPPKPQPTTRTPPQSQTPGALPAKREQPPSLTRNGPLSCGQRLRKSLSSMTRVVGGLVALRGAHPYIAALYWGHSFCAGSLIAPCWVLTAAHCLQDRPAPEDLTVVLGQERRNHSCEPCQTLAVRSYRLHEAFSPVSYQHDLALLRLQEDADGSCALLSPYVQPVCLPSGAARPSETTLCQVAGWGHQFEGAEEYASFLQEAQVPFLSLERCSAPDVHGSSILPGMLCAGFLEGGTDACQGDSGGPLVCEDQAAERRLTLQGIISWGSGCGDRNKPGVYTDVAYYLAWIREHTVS
Method: (§1) Stock FXIIa was diluted 700× in BSA5. The inhibitor was diluted in BSA5 as indicated. Wells contained 70 μl diluted FXIIa (5 nM final), 70 μl inhibitor and 20 μl S2302 (475 or 462.5 μM final). The reaction was started after 5 min heating on the heating plate with S2302. Filters 405 nm and 490 nm reference. Found ΔmA/min was multiplied by 2.14 to get the figure for a 1 cm path.

h-FXIIa [2] = target: T1, h-FXIIa; assay: S2302 hydrolysis by h-FXIIa (5.01 nM); inhibitor 30 min 95° C.
Method: as §1

h-FXIIa [3] = target: T1, h-FXIIa; assay: S2302 hydrolysis by h-FXIIa, fit of residual activity
Method: as §1, with “mΔA/min” for “ΔmA/min”
in which E=[FXIIa], Ki is the dissociation constant, I=[Inhibitor], kcat and Km are Michaelis constants and S=[S2302].

h-FXIIa [4] = target: T1, h-FXIIa; assay: S2302 hydrolysis by h-FXIIa (5.01 nM); inhibitor kept at -80° C. (reference)
Method: as §1

[5] = TICA added to CAT assay, 60 μg/ml in plasma
[6] = TICA added to Tube, 30 μg/ml whole blood

`CC[C@H](C)[C@@H]1NC(=O)[C@H](CCCNC(=N)N)NC(=O)[C@@H]2CCCN2C(=O)[C@@H](NC(=O)[C@@H](NC(=O)[C@@H](N)CCCNC(=N)N)C(C)C)CSSC[C@@H]2NC(=O)[C@H](CCC(=O)O)NC(=O)[C@H](C)NC(=O)[C@H](CC(C)C)NC(=O)[C@@H]3CSSC[C@@H](C(=O)NCC(=O)O)NC(=O)[C@H](Cc4ccc(O)cc4)NC(=O)CNC(=O)[C@H](Cc4c[nH]cn4)NC(=O)[C@H](CCC(=O)O)NC(=O)[C@H](CC(C)C)NC(=O)[C@H](CSSC[C@H](NC(=O)[C@H](CCCCN)NC(=O)[C@H](CCSC)NC(=O)[C@H](CC(C)C)NC1=O)C(=O)N[C@@H](CCCCN)C(=O)N[C@@H](CCCCN)C(=O)N[C@@H](CC(=O)O)C(=O)N[C@@H](CO)C(=O)N[C@@H](CC(=O)O)C(=O)N3)NC(=O)[C@H](C(C)C)NC2=O` [TICA1] was tested, and the “BD Glass 0 pM TF ETP (nM IIa · min)” value (contact activation; [5]) was 760 ± 526 nM IIa · min, the “BD Glass 0 pM TF Lagtime (min)” value (contact activation; [5]) was 38.8 ± 34.8 min and the “BD Glass 0 pM TF Peak Height (nM IIa)” value (contact activation; [5]) was 105 ± 81 nM IIa. The “BD Plastic 0 pM TF ETP (nM IIa · min)” value (contact activation; [5]) was 614 ± 538 nM IIa · min, the “BD Plastic 0 pM TF Lagtime (min)” value (contact activation; [5]) was 49.5 ± 37.7 min and the “BD Plastic 0 pM TF Peak Height (nM IIa)” value (contact activation; [5]) was 86 ± 87 nM IIa. The “Greiner 0 pM TF ETP (nM IIa · min)” value (contact activation; [5]) was 834 ± 449 nM IIa · min, the “Greiner 0 pM TF Lagtime (min)” value (contact activation; [5]) was 31.2 ± 26.7 min and the “Greiner 0 pM TF Peak Height (nM IIa)” value (contact activation; [5]) was 110 ± 70 nM IIa. The “Heamtech 0 pM TF ETP (nM IIa · min)” value (contact activation; [5]) was 666 ± 552 nM IIa · min, the “Heamtech 0 pM TF Lagtime (min)” value (contact activation; [5]) was 46.4 ± 39.7 min and the “Heamtech 0 pM TF Peak Height (nM IIa)” value (contact activation; [5]) was 93 ± 85 nM IIa. For the same molecule, the “Sarstedt 0 pM TF ETP (nM IIa · min)” value (contact activation; [5]) was 279 ± 227 nM IIa · min, the “Sarstedt 0 pM TF Lagtime (min)” value (contact activation; [5]) was 50.0 ± 38.0 min and the “Sarstedt 0 pM TF Peak Height (nM IIa)” value (contact activation; [5]) was 26 ± 23 nM IIa. The “Terumo 0 pM TF ETP (nM IIa · min)” value (contact activation; [5]) was 276 ± 367 nM IIa · min, the “Terumo 0 pM TF Lagtime (min)” value (contact activation; [5]) was 64 ± 40.6 min and the “Terumo 0 pM TF Peak Height (nM IIa)” value (contact activation; [5]) was 33 ± 50 nM IIa. The “BD Glass 0 pM TF ETP (nM IIa · min)” value (contact activation; [6]) was 77 ± 119 nM IIa · min, the “BD Glass 0 pM TF Lagtime (min)” value (contact activation; [6]) was 76.6 ± 34.0 min and the “BD Glass 0 pM TF Peak Height (nM IIa)” value (contact activation; [6]) was 6 ± 9 nM IIa. The “BD Plastic 0 pM TF ETP (nM IIa · min)” value (contact activation; [6]) was 20 ± 61 nM IIa · min, the “BD Plastic 0 pM TF Lagtime (min)” value (contact activation; [6]) was 90.1 ± 26.8 min and the “BD Plastic 0 pM TF Peak Height (nM IIa)” value (contact activation; [6]) was 2 ± 6 nM IIa. For the same molecule, the “Greiner 0 pM TF ETP (nM IIa · min)” value (contact activation; [6]) was 144 ± 164 nM IIa · min, the “Greiner 0 pM TF Lagtime (min)” value (contact activation; [6]) was 65.0 ± 34.8 min and the “Greiner 0 pM TF Peak Height (nM IIa)” value (contact activation; [6]) was 11 ± 13 nM IIa. The “Heamtech 0 pM TF ETP (nM IIa · min)” value (contact activation; [6]) was 289 ± 420 nM IIa · min, the “Heamtech 0 pM TF Lagtime (min)” value (contact activation; [6]) was 65.0 ± 34.8 min and the “Heamtech 0 pM TF Peak Height (nM IIa)” value (contact activation; [6]) was 36 ± 62 nM IIa. The “Sarstedt 0 pM TF ETP (nM IIa · min)” value (contact activation; [6]) was 140 ± 106 nM IIa · min, the “Sarstedt 0 pM TF Lagtime (min)” value (contact activation; [6]) was 52.5 ± 36.2 min and the “Sarstedt 0 pM TF Peak Height (nM IIa)” value (contact activation; [6]) was 10 ± 8 nM IIa. For the same molecule, the “Terumo 0 pM TF ETP (nM IIa · min)” value (contact activation; [6]) was 59 ± 119 nM IIa · min, the “Terumo 0 pM TF Lagtime (min)” value (contact activation; [6]) was 75.7 ± 35.6 min and the “Terumo 0 pM TF Peak Height (nM IIa)” value (contact activation; [6]) was 5 ± 11 nM IIa.

B1: Corn trypsin inhibitor (other, UniProt P01088 29-138, looked up)
chain: SAGTSCVPGWAIPHNPLPSCRWYVTSRTCGIGPRLPWPELKRRCCRELADIPAYCRCTALSILMDGAIPPGPDAQLEGRLEDLPGCPREVQRGFAATLVTEAECNLATIS
notes: also called CTI
In the case of B1, the “Res. Act. (%)” value (h-FXIIa [1]) is reported as 86%, the Ki (h-FXIIa [2]) is reported as 5.1 nM and the Ki (h-FXIIa [3]) is reported as 2.9 nM. For the same molecule, the “Res. Act. (%)” value (h-FXIIa [4]) was 100%.
